Data taken from KR20140086355A, “콜치신 유도체를 유효성분으로 포함하는 암의 예방 또는 치료용 조성물” (한국화학연구원, priority 2012, dated 2014).
Entries after “also recorded” stand apart in the source; their conditions may differ.

Experiments:
Format in all cases: cell-based
[1] = tested on: human colorectal cancer cells HCT116 [인간 대장암 세포, HCT116]; assay: alamarBlue cell proliferation assay, human colorectal cancer cells HCT116; details: 48 h, concentration dependence (Fig. 3: 100nM-1μM; Fig. 9)
PLK-1 [2] = assay: PLK-1 ELISA in HCT116 cells; details: HCT116, 48 h
PLK-1 [3] = assay: Western blot of Plk-1 in HCT116 cells; details: HCT116, 48 h; listed as 콜치신
[4] = tested on: human colorectal cancer cells [인간 대장암 세포]; assay: Apoptosis induction in human colorectal cancer cells (Western blot); details: listed as 콜치신

Compound: COc1cc2c(c(OC)c1OC)-c1ccc(OC)c(=O)cc1[C@@H](NC(C)=O)CC2 [H11-G04, Colchicine]
- inhibition of cell proliferation [1]: 세포증식이 농도에 따라 유의적으로 억제되는 효과가 나타났다
- Plk-1 concentration (PLK-1 [2]): 콜치신에 의해 Plk-1 농도가 감소함
- inhibition of Plk-1 expression (PLK-1 [3]): 콜치신이 Plk-1의 발현을 억제함; also recorded: Plk-1의 발현도 역시 억제된다
- induction of apoptosis [4]: 콜치신이 인간 대장암 세포의 사멸(apoptosis)를 유도함; also recorded: 세포사멸을 유도
